From patent US9247759B2, “Identification of human T2R receptors that respond to bitter compounds that elicit the bitter taste in compositions, and the use thereof in assays to identify compounds that inhibit (block) bitter taste in compositions and use thereof” (SENOMYX, INC., priority 2007, dated 2016)
Read-outs that look alike come from different tables or passages of the source.

Assays:
hT2R8 [1] = target: T1, hT2R8 (Homo sapiens (Human), UniProt Q9NYW2); conditions: compared with taster hT2R43-W35 and hT2R44-W35 alleles, FIG. 6
T1 sequence (Q9NYW2 whole entry): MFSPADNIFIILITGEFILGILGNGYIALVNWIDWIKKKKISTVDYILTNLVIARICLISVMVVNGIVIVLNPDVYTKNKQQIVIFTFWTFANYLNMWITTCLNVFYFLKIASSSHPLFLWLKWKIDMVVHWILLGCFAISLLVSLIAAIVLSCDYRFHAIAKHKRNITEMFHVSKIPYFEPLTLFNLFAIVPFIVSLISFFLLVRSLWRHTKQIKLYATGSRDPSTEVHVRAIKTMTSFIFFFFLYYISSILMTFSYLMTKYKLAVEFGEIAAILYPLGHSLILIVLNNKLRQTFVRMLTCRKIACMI
Source text: FIG. 6 is a plot of receptor activity as a function of log of the saccharin concentration.
Pronin et al., Curr. Biol. 17: 1403-8 (2007). Five individuals with the “taster” alleles (hT2R43-W35 and/or hT2R44-W35) and five with the “non-taster” alleles (hT2R43-S35 and hT2R44-R35) were selected based on genotyping analysis. Each subject was presented with 6 pairs of solutions and asked to determine which of the samples in a pair tasted more bitter.

hT2R8 [2] = target: T1, hT2R8; assay: hT2R8 antagonist high-throughput FLIPR assay, stable cell line with G16g44, agonist andrographolide; assay type: cell-based
Procedure, shortened: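 Antagonist screen: compounds co-applied with agonist andrographolide at 200 μM, a dose giving 70–80% of maximal hT2R8 activation. Fluorescence measured by FLIPR in a stable HEK293 line expressing both hT2R8 and the promiscuous G16g44 protein.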

[3] = test system: bitterness of T2R8 specific agonist; assay: Taste test with T2R8 specific agonist comparing a control bitter blocker and compound of interest; assay type: in vivo, human; conditions: antagonist conc. 1
Experimental: To determine the effectiveness of an individual antagonist, taste tests were performed with a T2R8 specific agonist, the compound of interest and a reference bitter blocker. We have previously described a good hT2R8 antagonist that was proven to have taste effect, Example 4-8 from U.S. Provisional Appl. Ser. No. 60/957,129, filed Aug. 21, 2007: N-(1-((3,5-dimethylisoxazol-4-yl)methyl)-1H-pyrazol-4-yl)benzo[d][1,3]dioxole-5-carboxamide.

[4] = test system: bitter taste of instant coffee; assay: 2-alternative forced choice taste test, instant coffee with hT2R8 antagonists; assay type: in vivo, human; conditions: antagonist 5 μM
Experimental: Taste tests were performed with hT2R8 antagonists in instant coffee using a 2-alternative forced choice method with a taste panel of 15-20 panelists. Coffee samples with the antagonists were given to the taste panelists together with the same sample without antagonists, the panelists were asked to identify the bitterer sample within the pair.

Row | responsiveness of hT2R8 to saccharin (hT2R8 [1]) | IC50 (hT2R8 [2]; Table 6, read-out: HTS assay IC50) | IC50 (hT2R8 [2]; table after Example 10-97, read-out: hT2R8 IC50) | IC50 (hT2R8 [2]; unit uM, read-out: IC50 on hT2R08 bitter receptor) | SMILES | Selected as more bitter: +other ([3]; sample with 10-10) | Selected as more bitter: 10-8 ([3]; sample with control blocker 10-8) | Selected as bitterer: With antagonists [4] | Selected as bitterer: Without antagonists [4]
1 | less responsive |  |  |  | O=C1NS(=O)(=O)c2ccccc21 [saccharin] |  |  |  | 
2 |  | 0.02 to 0.04 µM | 0.026 µM | 0.035 µM | Cc1noc(C)c1Cn1cc(N2C(=O)CN(Cc3cccc(O)c3)C2=O)cn1 [Example 10-10, 3-(1-((3,5-dimethylisoxazol-4-yl)methyl)-1H-pyrazol-4-yl)-1-(3-hydroxybenzyl)imidazolidine-2,4-dione] | 2 | 14 | 2 | 14
